Reference: PubChem BioAssay AID2060487 (Molecular Pharmacology Branch, DTP, NCI, 2025)
Values belong to the molecule of their own block, whether it stands above or below them.

Tested on: 997537-175-T-J1-PDC complex spheroid viability
Assay: Anticancer human tumor 997537-175-T-J1-PDC patient-derived colon adenocarcinoma cell line growth inhibition [GQUAD]
Conditions: for IC50: curve of first compound; for viability, T/C: stronger effect = lower value
Method in brief: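 Tumor cells were grown as complex spheroids with HUVEC endothelial cells and mesenchymal stem cells as stroma. G-quadruplex stabilizers were combined with targeted agents over half-log dilutions from near the clinical Cmax, or from 10 microM.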

[1] = second compound 0.0316 µM, first compound 0.0316 µM
[2] = second compound 0.0316 µM, first compound 0.1 µM
[3] = second compound 0.0316 µM, first compound 0.316 µM
[4] = second compound 0.0316 µM, first compound 1 µM
[5] = second compound 0.0316 µM, first compound 3.16 µM
[6] = second compound 0.0316 µM, first compound 10 µM
[7] = second compound 0.1 µM, first compound 0.0316 µM
[8] = second compound 0.1 µM, first compound 0.1 µM
[9] = second compound 0.1 µM, first compound 0.316 µM
[10] = second compound 0.1 µM, first compound 1 µM
[11] = second compound 0.1 µM, first compound 3.16 µM
[12] = second compound 0.1 µM, first compound 10 µM
[13] = second compound 0.316 µM, first compound 0.0316 µM
[14] = second compound 0.316 µM, first compound 0.1 µM
[15] = second compound 0.316 µM, first compound 0.316 µM
[16] = second compound 0.316 µM, first compound 1 µM
[17] = second compound 0.316 µM, first compound 3.16 µM
[18] = second compound 0.316 µM, first compound 10 µM
[19] = second compound 1 µM, first compound 0.0316 µM
[20] = second compound 1 µM, first compound 0.1 µM
[21] = second compound 1 µM, first compound 0.316 µM
[22] = second compound 1 µM, first compound 1 µM
[23] = second compound 1 µM, first compound 3.16 µM
[24] = second compound 1 µM, first compound 10 µM
[25] = second compound 3.16 µM, first compound 0.0316 µM
[26] = second compound 3.16 µM, first compound 0.1 µM
[27] = second compound 3.16 µM, first compound 0.316 µM
[28] = second compound 3.16 µM, first compound 1 µM
[29] = second compound 3.16 µM, first compound 3.16 µM
[30] = second compound 3.16 µM, first compound 10 µM
[31] = second compound 10 µM, first compound 0.0316 µM
[32] = second compound 10 µM, first compound 0.1 µM
[33] = second compound 10 µM, first compound 0.316 µM
[34] = second compound 10 µM, first compound 1 µM
[35] = second compound 10 µM, first compound 3.16 µM
[36] = second compound 10 µM, first compound 10 µM
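Also: spheroids exposed to the agents for 7 days.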
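For viability, T/C in this document: 100% = DMSO vehicle control viability.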

IC50 (second compound 0.0316 µM): > 10 µM | IC50 (second compound 0.1 µM): > 10 µM | IC50 (second compound 0.316 µM): > 10 µM | IC50 (second compound 1 µM): > 10 µM | IC50 (second compound 3.16 µM): > 10 µM | IC50 (second compound 10 µM): > 10 µM
SMILES: C#Cc1c(F)ccc2cc(O)cc(-c3ncc4c(N5CC6CCC(C5)N6)nc(OCC56CCCN5CC(F)C6)nc4c3F)c12 (stereo unspecified) + Cc1cnc(CNC(=O)c2c(=O)c3ccc(N4CCCN(C)CC4)nc3n3c2sc2ccccc23)cn1
viability, T/C [1]: 102% | viability, T/C [2]: 85.6% | viability, T/C [3]: 101% | viability, T/C [4]: 74.9% | viability, T/C [5]: 75.7% | viability, T/C [6]: 111% | viability, T/C [7]: 92.2% | viability, T/C [8]: 90.2% | viability, T/C [9]: 101% | viability, T/C [10]: 80.8% | viability, T/C [11]: 104% | viability, T/C [12]: 109% | viability, T/C [13]: 83.4% | viability, T/C [14]: 83.6% | viability, T/C [15]: 92.1% | viability, T/C [16]: 97.3% | viability, T/C [17]: 79.9% | viability, T/C [18]: 108% | viability, T/C [19]: 72.3% | viability, T/C [20]: 101% | viability, T/C [21]: 85% | viability, T/C [22]: 98% | viability, T/C [23]: 105% | viability, T/C [24]: 113% | viability, T/C [25]: 91.2% | viability, T/C [26]: 108% | viability, T/C [27]: 95.2% | viability, T/C [28]: 99.1% | viability, T/C [29]: 96.3% | viability, T/C [30]: 106% | viability, T/C [31]: 77% | viability, T/C [32]: 100% | viability, T/C [33]: 93.1% | viability, T/C [34]: 97.9% | viability, T/C [35]: 127% | viability, T/C [36]: 110%

IC50 (second compound 0.0316 µM): 1.87 µM | IC50 (second compound 0.1 µM): 2.73 µM | IC50 (second compound 0.316 µM): 2.55 µM | IC50 (second compound 1 µM): 7.65 µM | IC50 (second compound 3.16 µM): > 10 µM | IC50 (second compound 10 µM): 8.48 µM
SMILES: C=CCn1c(=O)c2cnc(Nc3ccc(N4CCN(C)CC4)cc3)nc2n1-c1cccc(C(C)(C)O)n1 + Cc1cnc(CNC(=O)c2c(=O)c3ccc(N4CCCN(C)CC4)nc3n3c2sc2ccccc23)cn1
viability, T/C [1]: 105% | viability, T/C [2]: 76.5% | viability, T/C [3]: 99% | viability, T/C [4]: 70.5% | viability, T/C [5]: 32.8% | viability, T/C [6]: 20.4% | viability, T/C [7]: 105% | viability, T/C [8]: 104% | viability, T/C [9]: 98.3% | viability, T/C [10]: 71.2% | viability, T/C [11]: 48.6% | viability, T/C [12]: 30.4% | viability, T/C [13]: 89% | viability, T/C [14]: 94.2% | viability, T/C [15]: 91.3% | viability, T/C [16]: 74% | viability, T/C [17]: 44.8% | viability, T/C [18]: 38.1% | viability, T/C [19]: 80.5% | viability, T/C [20]: 99.8% | viability, T/C [21]: 112% | viability, T/C [22]: 61.1% | viability, T/C [23]: 76% | viability, T/C [24]: 43.2% | viability, T/C [25]: 63.1% | viability, T/C [26]: 98.4% | viability, T/C [27]: 96% | viability, T/C [28]: 107% | viability, T/C [29]: 75.2% | viability, T/C [30]: 50.6% | viability, T/C [31]: 73.8% | viability, T/C [32]: 99.3% | viability, T/C [33]: 87.2% | viability, T/C [34]: 87% | viability, T/C [35]: 79.8% | viability, T/C [36]: 44.8%

IC50 (second compound 0.0316 µM): 0.0514 µM | IC50 (second compound 0.1 µM): 0.0957 µM | IC50 (second compound 0.316 µM): 0.165 µM | IC50 (second compound 1 µM): > 10 µM | IC50 (second compound 3.16 µM): 5.21 µM | IC50 (second compound 10 µM): > 10 µM
SMILES: CC(=O)O[C@H]1C(=O)[C@@]2(C)[C@H]([C@H](OC(=O)c3ccccc3)[C@]3(O)C[C@H](OC(=O)[C@H](O)[C@@H](NC(=O)c4ccccc4)c4ccccc4)C(C)=C1C3(C)C)[C@]1(OC(C)=O)CO[C@@H]1C[C@@H]2O + Cc1cnc(CNC(=O)c2c(=O)c3ccc(N4CCCN(C)CC4)nc3n3c2sc2ccccc23)cn1
viability, T/C [1]: 63.1% | viability, T/C [2]: 32.2% | viability, T/C [3]: 25.2% | viability, T/C [4]: 32.1% | viability, T/C [5]: 26.9% | viability, T/C [6]: 21.2% | viability, T/C [7]: 79.2% | viability, T/C [8]: 48.2% | viability, T/C [9]: 33.7% | viability, T/C [10]: 18.4% | viability, T/C [11]: 21.3% | viability, T/C [12]: 32.4% | viability, T/C [13]: 72.4% | viability, T/C [14]: 56.4% | viability, T/C [15]: 40.7% | viability, T/C [16]: 47.4% | viability, T/C [17]: 35% | viability, T/C [18]: 43.5% | viability, T/C [19]: 63% | viability, T/C [20]: 72.2% | viability, T/C [21]: 43.9% | viability, T/C [22]: 60.5% | viability, T/C [23]: 73.5% | viability, T/C [24]: 47.7% | viability, T/C [25]: 68.7% | viability, T/C [26]: 72.8% | viability, T/C [27]: 62.6% | viability, T/C [28]: 66% | viability, T/C [29]: 50.9% | viability, T/C [30]: 45.2% | viability, T/C [31]: 62.4% | viability, T/C [32]: 49.4% | viability, T/C [33]: 60% | viability, T/C [34]: 69.7% | viability, T/C [35]: 57% | viability, T/C [36]: 60.2%
